{
  "source": "patent US20100266589A1",
  "about": "“ADJUVANT CANCER THERAPY” (priority 2009, published 2010)",
  "test_system": "patients with resected stages II and III carcinoma of the colon",
  "experiment": "NSABP C-08 clinical trial: bevacizumab added to mFOLFOX6 as adjuvant therapy",
  "type": "in vivo",
  "excerpt": "This example concerns analysis of results obtained from colorectal cancer subjects treated in the National Surgical Adjuvant Breast and Bowel Project (NSABP C-08) clinical trial. The primary aim of the study was to determine the clinical benefit of adding bevacizumab to standard chemotherapy for treating colorectal cancer, as measured by disease-free survival (DFS). A secondary goal was to determine if there was clinical benefit in prolonging overall survival. The standard chemotherapy used in this trial was a combination of leucovorin, 5-fluorouracil and oxaliplatin. This trial evaluated the efficacy of bevacizumab (AVASTIN®) as adjuvant therapy for patients with resected stages II and III carcinoma of the colon.\nIn the NSABP C-08 trial, the following treatment protocol was used:\nArm A/Group 1: modified FOLFOX6 (mFOLFOX6: oxaliplatin (85 mg/m^2) with concurrent leucovorin (400 mg/m^2) and 5-FU (400 mg/m^2 IV bolus) on Day 1 and 5-FU (2400 mg/m^2) over 46 hours on Day 1 and Day 2) q 14 days for 12 cycles (6 months);\nArm B/Group 2: modified FOLFOX6 q 14 days for 12 cycles (6 months) plus bevacizumab administered before oxaliplatin on Day 1 of each chemotherapy cycle (5 mg/kg IV) q 14 days for 1 year.\nThe primary endpoint of this trial was duration of disease free survival (DFS). […]\n2,710 patients were accrued to the study (1,356 to the contol arm and 1,354 to the experimental arm). 18 patients on the control arm and 20 patients on the experimental arm were not evaluated for efficacy due to no follow-up or positive surgical margins. […]\nTime to an event was measured from randomization. All p-values, other than the primary endpoint, were evaluated as significant at the 0.05 level two-sided. […] Hazard ratios (HR) were calculated from Cox models and p-values from time to event were from the log rank test. […] Smooth estimates of the underlying hazard functions were calculated by the method of Muller and Wang (Biometrics 1994 50:61-76). Smooth estimates of the ratio of the underlying hazards were calculated by the method of Gilbert et al. (Biometrics 2002 58:773-80).",
  "data": [
    {"substance": "Bevacizumab: recombinant humanized anti-VEGF monoclonal antibody; human IgG1 framework with CDRs from murine antibody A.4.6.1", "values": [
      {"measurement": "HR", "setting": "DFS, 1.25 years after initiation of treatment, vs mFOLFOX6 alone, 95% CI 0.48-0.78, p <0.0001", "value": 0.61},
      {"measurement": "toxicities or adverse effects (in words)", "setting": "added to chemotherapy vs chemotherapy alone", "value": "not associated with any increased toxicities or adverse effects"},
      {"measurement": "effect on DFS (in words)", "setting": "added to chemotherapy vs chemotherapy alone, during the first year (active treatment phase)", "value": "significantly increased DFS"}
    ]}
  ]
}
